From US7611721B1, “Adjuvant combination formulations” (priority 2000, dated 2009)
Several values for one entry are separate records, joined by “and”; a condition that tells them apart may be missing. Equal entries are not always repeated. Where two headings read alike, the source gives them in different places.

Legend:
T1SP10MN(A) (−Cys) [1] = tested on: T1SP10MN(A) (−Cys)
Procedure: Mice were immunized subcutaneously in the rump, in a total volume of 0.2 ml equally divided on each side of the tail. Immunizations were administered at varying time intervals, as indicated below. Antigen and cytokines were diluted in phosphate buffered saline to the appropriate concentrations and formulated with adjuvants less than 16 hours prior to immunization, under sterile conditions. Vaccines were mixed by gentle agitation, and stored at 4° C. Formulations were mixed by vortex immediately prior to immunization.
Animals were bled prior to initial immunization, and at indicated time points. Serum was analyzed from individual mice, or as pools from mice within groups.
For analysis of HIV peptide-specific antibody and subclass distribution, peptide was suspended in either carbonate buffer (15 mM Na2CO3, 35 mM NaHCO3, pH 9.6), or PBS, at a concentration of 1 μg/ml and plated to 96 well microtiter plates (Nunc) in a volume of 100:1. After overnight incubation at 37° C., plates were washed, and blocked (0.1% gelatin/PBS) at room temperature for 2-4 hours. ELISA plates were washed with wash buffer (PBS, 0.1% Tween™20) before addition of serially diluted serum (PBS, 0.1% gelatin, 0.05% Tween™20, 0.02% sodium azide). After a four hour incubation, wells were washed and appropriate dilutions of biotinylated anti-isotype/subclass antibodies were added for incubation at 4° C. overnight. Wells were washed and incubated with strepavidin-conjugated horseradish peroxidase. After incubation, wells were washed, and developed with ABTS. Wells were read at 405 nm. Titers were standardized using control sera.
Reciprocal anti-HIV peptide-specific IgG endpoint titers were measured from pooled serum (n=5 Balb/c) at the indicated time points after initial immunization. Mice were immunized subcutaneously in the rump with 25 μg of T1SP10MN(A) (−Cys), unless otherwise indicated, on day 0, and on day 27. For recipients of Freund's adjuvants, mice were primed with peptide emulsified in CFA, and boosted with IFA. MPL™ SE was provided as an emulsion containing 2% squalene oil and 50 μg MPL™ per dose. SE is an oil-in-water emulsion vehicle consisting of squalene, glycerol, and an emulsifying agent. Recombinant murine IL-12 was delivered at 50 ng/mouse. Recombinant murine GM-CSF was delivered at 10 μg/mouse.
Reciprocal endpoint IgG subclass titers were measured from pooled serum (n=5 Balb/c) six weeks after initial immunization, two weeks after secondary immunization. Mice were immunized subcutaneously in the rump with 25 μg of peptide, unless otherwise indicated. For recipients of Freund's adjuvants, mice were primed with peptide emulsified in complete Freund's adjuvant, and boosted with incomplete Freund's adjuvant on weeks four and six. MPL™ SE was provided as an emulsion containing 2% squalene oil and 50 μg MPL™ per dose. SE is an oil-in-water emulsion vehicle consisting of squalene, glycerol, and an emulsifying agent. Recombinant murine IL-12 was delivered at 50 ng/mouse. Recombinant murine GM-CSF was delivered at 10 μg/mouse.
Mice were immunized subcutaneously in the rump, in a total volume of 0.2 ml equally divided on each side of the tail. Immunizations were administered on days 0 and 21 with 25 μg of the HIV peptide, together with the indicated amount of adjuvant(s).
Reciprocal anti-peptide IgG endpoint titers were measured from either geometric means from individual mice (GMT) or from pooled serum (n=5 Balb/c), obtained 14 days after the second immunization. IgG1 and IgG2a subclass endpoint titers were also measured from pooled serum.

[2] = tested on: Neisseria gonorrhoeae Porin B protein; test: Reciprocal anti-Porin B protein serum IgG endpoint subclass titers; type: in vivo, Swiss-Webster mice; conditions: for Reciprocal anti-Porin B Protein IgG1 endpoint titer, Week 3 / Reciprocal anti-Porin B Protein IgG1 endpoint titer, Week 6 / Reciprocal anti-Porin B Protein IgG2a endpoint titer, Week 3 / Reciprocal anti-Porin B Protein IgG2a endpoint titer, Week 6 / Reciprocal anti-Porin B Protein IgG endpoint titer, Week 3 / Reciprocal anti-Porin B Protein IgG endpoint titer, Week 6: 1 μg Porin B s.c. week 0 and 4
Procedure: (§1) Outbred Swiss-Webster mice were divided into five groups of ten mice each. Each group received 1 μg of recombinant Porin B protein (from strain FA1090 with 16 amino acids at the amino-terminus from a phage, followed by the mature form of the Porin B protein). […] Mice were immunized subcutaneously in the rump with a total volume of 0.2 ml, divided equally into each of two sites at the base of the tail/rump. Immunizations were administered at week 0 and week 4.
Mice were bled the day prior to each immunization, and at 13 days after the final immunization. Serum was analyzed from pools from mice within groups. […] All day 0 pre-immunization titers were less than 50.
Individual week 6 IgG titer geometric means against the recombinant Porin B protein were also determined.
as §1, with “six” for “five”, “five” for “ten”, “ml.” for “ml, divided equally into each of two sites at the base of the tail/rump.”
(§2) Mice were bled the day prior to each immunization, and at 13 days after the final immunization. Serum was analyzed from pools from mice within groups. […] All day 0 pre-immunization titers were less than 50. The starting dilution for vaginal lavage analysis was 1/5.

[3] = tested on: Neisseria gonorrhoeae Porin B protein; test: Vaginal wash anti-Porin B protein IgG and IgA titers; type: in vivo, Swiss-Webster mice; conditions: Experiment 11; Swiss-Webster; starting dilution 1/5
Procedure: as §1, with “six” for “five”, “five” for “ten”, “ml.” for “ml, divided equally into each of two sites at the base of the tail/rump.”
as §2

T1SP10MN(A) (−Cys) [4] = conditions: Experiment 3, 14 days after second immunization
Procedure: (§3) The protocols of Experiment 2 were followed, with Swiss-Webster mice used instead of Balb/c mice. Only reciprocal anti-peptide IgG endpoint titers and vaginal lavage endpoint reciprocal endpoint IgG and IgA antibody titers were measured in this experiment.
Reciprocal anti-T1SP10MN(A) (−Cys) IgG endpoint titers were measured from geometric means from individual Swiss-Webster mice (GMT), obtained 14 days after the second immunization. IgG1 and IgG2a subclass endpoint titers were also measured from pooled serum. For recipients of Freund's adjuvants, mice were primed with peptide emulsified in CFA, and boosted with IFA. […] Aqueous MPL™ was delivered at 50 μg per dose. Recombinant murine IL-12 was delivered at 40 ng/mouse. Recombinant murine GM-CSF was delivered at 10 μg/mouse.

RSV F protein = conditions: pooled serum n=5 Balb/c
T1SP10MN(A) (+Cys) = test: Reciprocal anti-T1SP10MN(A) (+Cys) serum IgG and subclass endpoint titers, Balb/c mice; type: in vivo; conditions: n=3 Balb/c
Excerpt: The protocols of Experiment 2 were followed, except that the HIV peptide contained a cysteine at amino acid position 17, and the mice (n=3 Balb/c) were immunized subcutaneously on days 0 and 21, and bled for serological evaluation on days −1 (the day before first immunization), 13, 20 and 28. […] The HIV peptide T1SP10MN(A) (+Cys) (26) contains a cysteine at amino acid position 17 and is 40 residues long. T1SP10MN(A) (+Cys) was purchased from Genosys Biotechnologies (The Woodlands, Tex.).
Reciprocal anti-T1SP10MN(A) IgG endpoint titers were measured from individual mice and their geometric means (n=3 Balb/c) 28 days after initial immunization.
The protocols of Experiment 6 were followed, except that mice (n=3 Balb/c) were immunized subcutaneously on days 0 and 32, and bled for serological evaluation on day 38.
Reciprocal anti-T1SP10MN(A) (+Cys) IgG endpoint titers were measured from individual mice and their geometric means (n=3 Balb/c) 38 days after initial immunization.

T1SP10MN(A) (−Cys) [5] = conditions: Experiment 3; pooled, n=5 Swiss-Webster; 15 days after secondary immunization
Procedure: as §3
Aqueous MPL™ was delivered at 50 μg per dose. Recombinant murine IL-12 was delivered at 40 ng/mouse. Recombinant murine GM-CSF was delivered at 10 μg/mouse.

[6] = Experiment 2, pooled serum n=5 Balb/c, 14 days after second immunization
[7] = Experiment 4, individual Balb/c mouse, day 41, 13 days after secondary immunization (days 0 and 28)
[8] = Experiment 4, pooled serum n=5 Balb/c, day 41, 13 days after secondary immunization
[9] = Experiment 5, pooled serum n=5 Balb/c, immunized days 0 and 22, bled day 42
[10] = Experiment 10, pooled serum n=10 Swiss-Webster
[11] = Experiment 11, pooled serum n=5 Swiss-Webster
[12] = Experiment 12, 3 μg F protein i.m. week 0 and 4
[13] = Experiment 13, F protein week 0 and 4
[14] = Experiment 14, 3 μg F protein s.c. week 0 and 4
[15] = Experiment 6, immunized days 0 and 21, day 28
[16] = Experiment 7, immunized days 0 and 32, day 38

Chain of RSV F protein (P03420 137-574): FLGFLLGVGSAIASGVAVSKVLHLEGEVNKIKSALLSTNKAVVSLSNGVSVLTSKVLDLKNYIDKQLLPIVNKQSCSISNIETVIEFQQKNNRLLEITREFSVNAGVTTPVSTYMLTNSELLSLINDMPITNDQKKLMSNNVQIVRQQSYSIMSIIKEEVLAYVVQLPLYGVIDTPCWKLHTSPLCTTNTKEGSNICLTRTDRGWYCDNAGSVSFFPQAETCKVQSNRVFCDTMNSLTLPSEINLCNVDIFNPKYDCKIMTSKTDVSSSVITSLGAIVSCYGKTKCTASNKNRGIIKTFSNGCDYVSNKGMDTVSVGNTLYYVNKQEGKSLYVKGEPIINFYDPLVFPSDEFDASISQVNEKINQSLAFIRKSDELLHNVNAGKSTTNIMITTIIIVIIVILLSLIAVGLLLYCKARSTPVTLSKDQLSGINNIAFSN

3-O-deacylated monophosphoryl lipid A [MPL ™]
Reciprocal anti-T1SP10MN(A) (−Cys) IgG (GMT) endpoint titer (T1SP10MN(A) (−Cys) [1]; Experiment 2, geometric mean of individual Balb/c mice, 14 days after second immunization): 241,918 | Reciprocal anti-T1SP10MN(A) (−Cys) IgG1 (pool) endpoint titer (T1SP10MN(A) (−Cys) [1]; [6]): 134,428 | Reciprocal anti-T1SP10MN(A) (−Cys) IgG2a (pool) endpoint titer (T1SP10MN(A) (−Cys) [1]; [6]): 7,127 | Reciprocal anti-T1SP10MN(A) (−Cys) IgG (pool) endpoint titer (T1SP10MN(A) (−Cys) [1]; Experiment 2, pooled serum n=5 Balb/c, immunized days 0 and 21, 14 days after second immunization): 219,705 | IgG serum titer specific for T1SP10MN(A) (−Cys), Mouse #1 (T1SP10MN(A) (−Cys) [1]; [7]): 50 | IgG serum titer specific for T1SP10MN(A) (−Cys), Mouse #2 (T1SP10MN(A) (−Cys) [1]; [7]): 151,846 | IgG serum titer specific for T1SP10MN(A) (−Cys), Mouse #3 (T1SP10MN(A) (−Cys) [1]; [7]): 249,054 | IgG serum titer specific for T1SP10MN(A) (−Cys), Mouse #4 (T1SP10MN(A) (−Cys) [1]; [7]): 436,378 | IgG serum titer specific for T1SP10MN(A) (−Cys), Mouse #5 (T1SP10MN(A) (−Cys) [1]; [7]): 1,245,470 | Geometric Mean IgG serum titer specific for T1SP10MN(A) (−Cys), GMT (T1SP10MN(A) (−Cys) [1]; Experiment 4, n=5 Balb/c, day 41, 13 days after secondary immunization): 63,452 | Reciprocal anti-T1SP10MN(A) (−Cys) IgG1 endpoint titer (T1SP10MN(A) (−Cys) [1]; [8]): 33,544 | Reciprocal anti-T1SP10MN(A) (−Cys) IgG2a endpoint titer (T1SP10MN(A) (−Cys) [1]; [8]): 212 | Reciprocal anti-T1SP10MN(A) (−Cys) IgG2b endpoint titer (T1SP10MN(A) (−Cys) [1]; [8]): <100 | Reciprocal anti-T1SP10MN(A) (−Cys) IgG GMT (T1SP10MN(A) (−Cys) [1]; Experiment 5, geometric mean n=5 Balb/c, immunized days 0 and 22, bled day 42): 2,032,441 | Reciprocal anti-T1SP10MN(A) (−Cys) IgG1 endpoint titer (T1SP10MN(A) (−Cys) [1]; [9]): 1,314,771 | Reciprocal anti-T1SP10MN(A) (−Cys) IgG2a endpoint titer (T1SP10MN(A) (−Cys) [1]; [9]): 9,688 | Reciprocal anti-T1SP10MN(A) (−Cys) IgG2b endpoint titer (T1SP10MN(A) (−Cys) [1]; [9]): 13,716 | Reciprocal anti-T1SP10MN(A) (−Cys) IgG endpoint titer (T1SP10MN(A) (−Cys) [1]; [9]): 2,635,118 | Reciprocal anti-Porin B Protein IgG1 endpoint titer, Week 3 [2, 10]: 171 | Reciprocal anti-Porin B Protein IgG1 endpoint titer, Week 6 [2, 10]: 23,465 | Reciprocal anti-Porin B Protein IgG2a endpoint titer, Week 3 [2, 10]: 318 | Reciprocal anti-Porin B Protein IgG2a endpoint titer, Week 6 [2, 10]: 20,422 | Reciprocal anti-Porin B Protein IgG endpoint titer, Week 3 [2, 10]: 3,381 | Reciprocal anti-Porin B Protein IgG endpoint titer, Week 6 [2, 10]: 431,529 | Individual IgG titers against recombinant Porin B protein, Geometric Mean ([2]; Experiment 10, week 6, Swiss-Webster): 217,114 | Reciprocal anti-Porin B Protein IgG1 endpoint titer, Week 3 [2, 11]: 500 | Reciprocal anti-Porin B Protein IgG1 endpoint titer, Week 6 [2, 11]: 76,640 | Reciprocal anti-Porin B Protein IgG2a endpoint titer, Week 3 [2, 11]: 1,925 | Reciprocal anti-Porin B Protein IgG2a endpoint titer, Week 6 [2, 11]: 60,910 | Reciprocal anti-Porin B Protein IgG endpoint titer, Week 3 [2, 11]: 5,656 | Reciprocal anti-Porin B Protein IgG endpoint titer, Week 6 [2, 11]: 265,127 | Vaginal Wash IgA titer, anti-Porin B Protein [3]: 5 | Vaginal Wash IgG titer, anti-Porin B Protein [3]: 54 | Reciprocal anti-HIV peptide IgG (GMT) endpoint titer (T1SP10MN(A) (−Cys) [4]; individual Swiss-Webster mice): 1,960 | Reciprocal anti-HIV peptide IgG1 (pool) endpoint titer (T1SP10MN(A) (−Cys) [4]; pooled serum Swiss-Webster): <1000 | Reciprocal anti-HIV peptide IgG2a (pool) endpoint titer (T1SP10MN(A) (−Cys) [4]; pooled serum Swiss-Webster): <1000 | Reciprocal anti-RSV F Protein IgG1 endpoint titer, Week 3 (RSV F protein; [12]): 28,134 | Reciprocal anti-RSV F Protein IgG1 endpoint titer, Week 6 (RSV F protein; [12]): 900,863 | Reciprocal anti-RSV F Protein IgG2a endpoint titer, Week 3 (RSV F protein; [12]): 11,882 | Reciprocal anti-RSV F Protein IgG2a endpoint titer, Week 6 (RSV F protein; [12]): 1,057,108 | Reciprocal anti-RSV F Protein IgG endpoint titer, Week 3 (RSV F protein; [12]): 124,197 | Reciprocal anti-RSV F Protein IgG endpoint titer, Week 6 (RSV F protein; [12]): 3,310,838 | Reciprocal anti-RSV F Protein IgG1 endpoint titer, Week 3 (RSV F protein; [13]): 21,930 | Reciprocal anti-RSV F Protein IgG1 endpoint titer, Week 6 (RSV F protein; [13]): 1,384,927 | Reciprocal anti-RSV F Protein IgG2a endpoint titer, Week 3 (RSV F protein; [13]): 61,253 | Reciprocal anti-RSV F Protein IgG2a endpoint titer, Week 6 (RSV F protein; [13]): 955,685 | Reciprocal anti-RSV F Protein IgG endpoint titer, Week 3 (RSV F protein; [13]): 104,702 | Reciprocal anti-RSV F Protein IgG endpoint titer, Week 6 (RSV F protein; [13]): 6,153,833 | Reciprocal anti-RSV F Protein IgG1 endpoint titer, Week 3 (RSV F protein; [14]): 55,767 | Reciprocal anti-RSV F Protein IgG1 endpoint titer, Week 6 (RSV F protein; [14]): 402,128 | Reciprocal anti-RSV F Protein IgG2a endpoint titer, Week 3 (RSV F protein; [14]): 8,397 | Reciprocal anti-RSV F Protein IgG2a endpoint titer, Week 6 (RSV F protein; [14]): 170,252 | Reciprocal anti-RSV F Protein IgG endpoint titer, Week 3 (RSV F protein; [14]): 26,179 | Reciprocal anti-RSV F Protein IgG endpoint titer, Week 6 (RSV F protein; [14]): 3,467,097 | Anti-HIV Peptide (+Cys) IgG1 GMT (T1SP10MN(A) (+Cys); [15]): 84,978 | Anti-HIV Peptide (+Cys) IgG1 endpoint titer, individual mice (T1SP10MN(A) (+Cys); [15]): 23,249 and 155,199 and 170,071 | Anti-HIV Peptide (+Cys) IgG2a GMT (T1SP10MN(A) (+Cys); [15]): 2,859 | Anti-HIV Peptide (+Cys) IgG2a endpoint titer, individual mice (T1SP10MN(A) (+Cys); [15]): 500 and 1,628 and 28,722 | Anti-HIV Peptide (+Cys) IgG2b GMT (T1SP10MN(A) (+Cys); [15]): 2,906 | Anti-HIV Peptide (+Cys) IgG2b endpoint titer, individual mice (T1SP10MN(A) (+Cys); [15]): 500 and 1,102 and 44,531 | Anti-HIV Peptide (+Cys) IgG GMT (T1SP10MN(A) (+Cys); [15]): 350,486 | Anti-HIV Peptide (+Cys) IgG endpoint titer, individual mice (T1SP10MN(A) (+Cys); [15]): 91,728 and 529,663 and 886,156 | Anti-HIV Peptide (+Cys) IgG1 GMT (T1SP10MN(A) (+Cys); [16]): 115,544 | Anti-HIV Peptide (+Cys) IgG1 endpoint titer, individual mice (T1SP10MN(A) (+Cys); [16]): 148,818 and 90,380 and 114,686 | Anti-HIV Peptide (+Cys) IgG2a GMT (T1SP10MN(A) (+Cys); [16]): 3,429 | Anti-HIV Peptide (+Cys) IgG2a endpoint titer, individual mice (T1SP10MN(A) (+Cys); [16]): 11,874 and 1,674 and 2,028 | Anti-HIV Peptide (+Cys) IgG2b GMT (T1SP10MN(A) (+Cys); [16]): 4,980 | Anti-HIV Peptide (+Cys) IgG2b endpoint titer, individual mice (T1SP10MN(A) (+Cys); [16]): 9,685 and 3,605 and 3,538 | Anti-HIV Peptide (+Cys) IgG GMT (T1SP10MN(A) (+Cys); [16]): 442,259 | Anti-HIV Peptide (+Cys) IgG endpoint titer, individual mice (T1SP10MN(A) (+Cys); [16]): 404,755 and 446,952 and 478,163 | Vaginal lavage reciprocal anti-HIV peptide IgA endpoint titer (T1SP10MN(A) (−Cys) [5]): <10 | Vaginal lavage reciprocal anti-HIV peptide IgG endpoint titer (T1SP10MN(A) (−Cys) [5]): <10
